Data on nine molecules can be found in paper PMC8174486, “Synthesis and preliminary structure-activity relationship study of 3-methylquinazolinone derivatives as EGFR inhibitors with enhanced antiproliferative activities against tumour cells” (Journal of Enzyme Inhibition and Medicinal Chemistry, 2021).

One data set relates to A431 cells. Description: MTT antiproliferative assay, A431. As to conditions: mean ± SD of three replicates. The class given is cell-based, human. The procedure: (§1) A431 (Human epidermoid carcinoma cell line) cell, A549 (Human non-small cell lung cancer cell line) cell, MCF-7 (Human breast adenocarcinoma cell line) cell, and NCI-H1975 (Human non-small cell lung cancer cell line) cell were purchased from the Shanghai Cell Bank of the Chinese Academy of Sciences. NRK-52E (Normal rat kidney cell line) cell was donated by Guizhou Medical University.
(§2) The IC50 value was determined from a sigmoid dose − response curve using Graph-Pad Prism (GraphPad Software, San Diego, CA).
On the technique in general: Tetrazolium dyes change colour on reduction, which living cells bring about.

The test system of a further data set is A549 cells. Description: MTT antiproliferative assay, A549. It is filed as cell-based. As to conditions: Homo sapiens, mean ± SD of three replicates. How it is done:
as §1, §2

The test system of data set [1] is MCF-7 cells. Description: MTT antiproliferative assay, MCF-7. The class given is cell-based. As to conditions: Homo sapiens, MCF7, mean ± SD of three replicates. The procedure: as §1, §2
The test system of another data set is NCI-H1975 cells. As to the kind of experiment: MTT antiproliferative assay, NCI-H1975. The class given is cell-based. As to conditions: Homo sapiens, mean ± SD of three replicates. The procedure: as §1, §2
Data set [2] in a line: Stability in mice plasma (HPLC). It is filed as in vitro ADME. As to conditions: 37 °C, 60 min. The procedure: HPLC procedures and spectra
A 2.5 mL centrifuge tube was added 300 µL plasma derived from normal […] (7 weeks, male), and 30 µL compound A or compound 4d in ethanol (50 mM). The mixture was incubated at 37 °C for 60 min, and then treated with 300 µL of CH3CN, separated in centrifugation at 30000 rpm for 10 min. The supernatant was treated with the same procedure for another time and analyzed in HPLC using C18 column (4.6 mm x 250 mm) and mobile phase of CH3CN/H2O (90 : 10) with a flow rate of 1.5 mL/min.
Fig. S1 Metabolic stability in plasma of compound A
Fig. S2 Metabolic stability in plasma of compound 4d […]

Another data set concerns the target T1, EGFR^wt-TK (Homo sapiens, UniProt P00533).
T1 construct: The recombinant EGFR^wt-TK and Antiphosphotyrosine mouse mAb were purchased from PTM Bio; purchased PTM Bio
As to the kind of experiment: In vitro EGFR^wt-TK assay (ELISA). It is filed as biochemical. As to conditions: mean ± SD of three replicates. How it is done: Enzymatic inhibition of synthesised compounds against wild type EGFR tyrosine kinase was determined with enzyme-linked immunosorbent assays (ELISAs) as our previous methods. The recombinant EGFR^wt-TK and Antiphosphotyrosine mouse mAb were purchased from PTM Bio. The IC50 value was determined from a sigmoid dose − response curve using Graph-Pad Prism (GraphPad Software, San Diego, CA).
On the technique in general: ELISA stands for enzyme-linked immunosorbent assay.

Data set [3] deals with MCF-7 cells. Description: Cell apoptosis analysis (Annexin V-FITC/PI flow cytometry). The class given is cell-based, human. Particulars: MCF-7, 5 μM, 48 h.
Data set [4] deals with MCF-7 cells. As to the kind of experiment: Cell cycle analysis (flow cytometry). It is filed as cell-based, human. As to conditions: MCF-7, 5 μM, 48 h. A general note: A flow cytometer gives signals particle by particle.

T1 sequence (P00533 25-1210): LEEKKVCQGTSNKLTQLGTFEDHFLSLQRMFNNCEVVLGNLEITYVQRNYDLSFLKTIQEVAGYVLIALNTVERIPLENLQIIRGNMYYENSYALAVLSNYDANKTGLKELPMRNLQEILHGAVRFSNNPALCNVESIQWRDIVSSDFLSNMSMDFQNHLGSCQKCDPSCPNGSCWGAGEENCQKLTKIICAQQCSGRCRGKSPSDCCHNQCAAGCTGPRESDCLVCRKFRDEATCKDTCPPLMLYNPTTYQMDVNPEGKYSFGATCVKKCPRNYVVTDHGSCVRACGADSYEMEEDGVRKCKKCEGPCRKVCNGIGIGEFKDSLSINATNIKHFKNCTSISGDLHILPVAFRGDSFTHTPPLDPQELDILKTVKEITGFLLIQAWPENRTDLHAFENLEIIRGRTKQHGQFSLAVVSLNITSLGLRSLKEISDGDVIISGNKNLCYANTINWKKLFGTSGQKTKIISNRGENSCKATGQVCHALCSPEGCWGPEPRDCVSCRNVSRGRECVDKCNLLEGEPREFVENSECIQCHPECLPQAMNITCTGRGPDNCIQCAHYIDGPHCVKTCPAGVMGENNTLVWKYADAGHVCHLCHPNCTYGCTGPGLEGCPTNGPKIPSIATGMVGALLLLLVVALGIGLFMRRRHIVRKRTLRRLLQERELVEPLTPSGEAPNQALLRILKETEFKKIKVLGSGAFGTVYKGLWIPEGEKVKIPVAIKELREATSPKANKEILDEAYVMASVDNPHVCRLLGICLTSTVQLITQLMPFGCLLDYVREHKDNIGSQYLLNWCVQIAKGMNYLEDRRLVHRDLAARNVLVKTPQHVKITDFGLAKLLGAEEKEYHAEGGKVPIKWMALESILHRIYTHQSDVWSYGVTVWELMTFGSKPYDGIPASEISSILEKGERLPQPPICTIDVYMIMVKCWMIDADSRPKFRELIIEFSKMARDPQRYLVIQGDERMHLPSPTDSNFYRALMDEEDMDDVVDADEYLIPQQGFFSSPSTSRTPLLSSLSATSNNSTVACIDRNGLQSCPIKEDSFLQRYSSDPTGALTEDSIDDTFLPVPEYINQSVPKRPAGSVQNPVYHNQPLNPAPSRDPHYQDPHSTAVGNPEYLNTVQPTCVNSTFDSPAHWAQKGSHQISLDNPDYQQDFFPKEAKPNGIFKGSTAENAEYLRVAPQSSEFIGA

For `Cn1c(COc2ccc(/C=N/c3cccc(F)c3)cc2)nc2ccccc2c1=O` [A, reference compound], the IC50 (commonly the concentration at which inhibition is half-maximal) with A431 cells (Homo sapiens, A-431, MTT) turned out to be 17.7 ± 2.08 µM; with A549 cells it was 17.9 ± 2.11 µM; in the data set on MCF-7 cells [1] it was 14.1 ± 1.85 µM; in the data set with NCI-H1975 cells, 19.2 ± 3.02 µM. In addition, the “stability in mice plasma” value in data set [2] (SD mice plasma) is given as “not stable”.

For the molecule `Cn1c(COc2ccc(/C=C/C(=O)c3cccc(F)c3)cc2)nc2ccccc2c1=O` [Compound 4a, (E)-2-((4–(3-(3-Fluorophenyl)-3-oxoprop-1-enyl)phenoxy)methyl)-3-methylquinazolin-4(3H)-one], the melting point (in general, the temperature of the solid-liquid transition) lay in the range of 208 to 209 °C. This molecule gave an IC50 at EGFR^wt-TK of 2.71 ± 0.22 µM. Moreover, the IC50 in the data set on A431 cells (Homo sapiens, A-431, MTT) is 9.32 ± 0.57 µM. Further, the IC50 in the data set on A549 cells was determined as 8.63 ± 0.41 µM. The molecule also registered a half-inhibitory concentration (IC50) in the data set on MCF-7 cells [1] of 10.6 ± 1.03 µM. This molecule also yielded an IC50 in the data set with NCI-H1975 cells of 13.7 ± 1.61 µM.

On to `Cn1c(COc2ccc(C(=O)Nc3cccc(F)c3)cc2)nc2ccccc2c1=O` [Compound 4b, N-(3-Fluorophenyl)-4-((3-methyl-4-oxo-3,4-dihydroquinazolin-2-yl)methoxy)benzamide], for which the melting point is 196 to 197 °C. Further, on EGFR^wt-TK, the IC50 worked out at 1.63 ± 0.15 µM. Also, inhibition in the data set with A431 cells (Homo sapiens, A-431, MTT) was half-maximal at 8.72 ± 0.46 µM (IC50). For the same molecule, in the data set with A549 cells, the half-inhibitory concentration (IC50) turned out to be 9.08 ± 0.69 µM. Also, the 50% inhibitory concentration (IC50) in the data set on MCF-7 cells [1] turned out to be 9.64 ± 0.88 µM. Moreover, half-maximal inhibition in the data set on NCI-H1975 cells (IC50) was put at 12.9 ± 1.44 µM.

With `Cn1c(COc2ccc(/C=C/c3cccc(F)c3)cc2)nc2ccccc2c1=O` [Compound 4c, (E)-2-((4-(3-Fluorostyryl)phenoxy)methyl)-3-methylquinazolin-4(3H)-one], the melting point is 160 to 162 °C. This molecule also displayed an IC50 against EGFR^wt-TK of 0.2 ± 0.041 µM. The IC50 with A431 cells (Homo sapiens, A-431, MTT) worked out at 6.79 ± 0.72 µM. This molecule also returned an IC50 in the data set with A549 cells of 4.26 ± 0.57 µM. The molecule also yielded a 50% inhibitory concentration (IC50) in the data set on MCF-7 cells [1] of 6.04 ± 0.73 µM. Moreover, the midpoint of inhibition with NCI-H1975 cells, the IC50, lay at 6.44 ± 0.85 µM.

Take `Cn1c(COc2ccc(NC(=O)c3cccc(F)c3)cc2)nc2ccccc2c1=O` [Compound 4d, 3-Fluoro-N-(4-((3-methyl-4-oxo-3,4-dihydroquinazolin-2-yl)methoxy)phenyl)benzamide]: the melting point lay within 228 to 229 °C. Also, the 50% inhibitory concentration (IC50) on EGFR^wt-TK came out at 0.053 ± 0.008 µM. Besides, in the data set on A431 cells (Homo sapiens, A-431, MTT), the IC50 was 3.48 ± 0.49 µM. The same molecule showed a concentration for half-maximal inhibition (IC50) in the data set on A549 cells of 2.55 ± 0.26 µM. Further, the IC50 with MCF-7 cells [1] was 0.87 ± 0.14 µM. In the data set on NCI-H1975 cells, this molecule had a concentration for half-maximal inhibition (IC50) of 6.42 ± 0.47 µM. In addition, the “ratio of apoptotic cells (late)” value in the data set on MCF-7 cells [3] turned out to be 41.36%. Besides, the “percentage of cells in G2/M” value in the data set with MCF-7 cells [4] is reported as 10.38%. Besides, the “purity after incubation with mice plasma” value in data set [2] (Sprague Dawley (SD) mice plasma) is on record as “higher than 98%”.

In turn, `Cn1c(COc2ccc(NC(=O)c3ccc(F)c(F)c3)cc2)nc2ccccc2c1=O` [Compound 4e, 3,4-Difluoro-N-(4-((3-methyl-4-oxo-3,4-dihydroquinazolin-2-yl)methoxy)phenyl)benzamide] returned a melting point of 248 to 249 °C. For the same molecule, half-maximal inhibition at EGFR^wt-TK (IC50) was put at 0.061 ± 0.007 µM. The molecule further came in with a 50% inhibitory concentration (IC50) with A431 cells (Homo sapiens, A-431, MTT) of 3.53 ± 0.34 µM. In addition, in the data set with A549 cells, the IC50 was 2.69 ± 0.32 µM. In the data set with MCF-7 cells [1], this molecule showed an IC50 of 0.96 ± 0.21 µM. In the data set with NCI-H1975 cells, it took 7.18 ± 0.49 µM to reach half-maximal inhibition (IC50).

Consider `Cn1c(COc2ccc(NC(=O)/C=C/c3ccc(F)c(F)c3)cc2)nc2ccccc2c1=O` [Compound 4f, (E)-3-(3,4-Difluorophenyl)-N-(4-((3-methyl-4-oxo-3,4-dihydroquinazolin-2-yl)methoxy)phenyl)acrylamide], for which the melting point lay within 235 to 236 °C. Besides, the IC50 at EGFR^wt-TK came out at 0.38 ± 0.075 µM. Further, inhibition in the data set on A431 cells (Homo sapiens, A-431, MTT) was half-maximal at 8.76 ± 0.74 µM (IC50). Besides, 8.46 ± 0.67 µM corresponded to half-maximal inhibition with A549 cells (IC50). In the data set on MCF-7 cells [1], the half-inhibitory concentration (IC50) came out at 2.84 ± 0.22 µM. In the data set with NCI-H1975 cells, this molecule showed an IC50 of 9.33 ± 0.78 µM.

Molecule `Cn1c(COc2ccc(NC(=O)Nc3cccc(F)c3)cc2)nc2ccccc2c1=O` [Compound 4g, 1-(3-Fluorophenyl)-3-(4-((3-methyl-4-oxo-3,4-dihydroquinazolin-2-yl)methoxy)phenyl)urea] yielded a melting point of 195 to 196 °C. This molecule also showed an IC50 against EGFR^wt-TK of 0.71 ± 0.093 µM. The molecule also came in with an IC50 in the data set with A431 cells (Homo sapiens, A-431, MTT) of 8.34 µM. Also, the IC50 in the data set with A431 cells (MTT) worked out at 8.35 ± 0.46 µM. This molecule also yielded a concentration for half-maximal inhibition (IC50) in the data set on A549 cells of 7.31 ± 0.59 µM. The same molecule came in with an IC50 in the data set with MCF-7 cells [1] of 10.7 ± 2.07 µM. The molecule also showed an IC50 in the data set on NCI-H1975 cells of 10.2 ± 1.03 µM.

In the case of `COc1cc2ncnc(Nc3ccc(F)c(Cl)c3)c2cc1OCCCN1CCOCC1` [Gefitinib, reference compound], in the data set with MCF-7 cells [4], the “percentage of cells in G2/M” value was found to be 11.58%.
